From patent US6447782B1, “Lipid extract of the Skeletonema algae” (Parfums Christian Dior, priority 1998, dated 2002)

Tested on: 3′,5′-cAMP phosphodiesterase (PDE)
Assay: Test for inhibitory activity on PDE (hydrolysis of cAMP to AMP, AMP measured by HPLC)
Format: biochemical
Conditions: reaction time 5 minutes, lipid extract 0.1% in DMSO, theophylline 0.2% in DMSO
Description: The principle of the test is based on the hydrolysis of cyclic 3′5′-adenosine monophosphate(cAMP) to adenosine monophosphate (AMP). The formation of AMP is measured by HPLC (high performance liquid chromatography) analysis.
The solutions of the reagents are prepared in 0.05 M Tris-HCl buffer at pH 7.5.
The lipid extracts to be tested are at a concentration of 0.1% in DMSO.
The same experiment is carried out with the reference active product theophylline (H. Kather, A. Scheurer, Effects of different phosphodiesterase inhibitors on the antilipolytic action of insulin in human adipocytes: Horm. Metabol. Res. 19 (1987) 379-381). Likewise, B. B. Fredholm, E. Lindger, Acta pharmacol. et toxicol., 54 (1984), pp. 64-71, “The effect of alkylxanthines and other phosphodiesterase inhibitors on adenosine receptor mediated decrease in lipolysis and cyclic AMP accumulation in rat fat cells” . . . These tests are reference tests for those skilled in the art.
The theophylline tested (SIGMA/Ref. T1633) is at a concentration of 0.2% in DMSO.
The composition of the reaction media is described below. […]
The amount of AMP formed is measured after a reaction time of 5 minutes by calculating the integration area of the AMP peak on the chromatogram produced by the HPLC apparatus (KONTRON S. A.). […]
The amount of AMP due to the action of PDE is measured after a reaction time of 5 minutes. […]

A (%) percentage inhibition of PDE: 35% | Integration area of AMP (DMSO control 40.80): 26.52
Structure (SMILES): Cn1c(=O)c2[nH]cnc2n(C)c1=O [Theophylline, theophylline]
